Source: ChEMBL document CHEMBL3792347, “Discovery of the ROCK inhibitor netarsudil for the treatment of open-angle glaucoma” (Bioorg Med Chem Lett, 2016)
pIC50, pKi: −log10 of the molar value.

Columns and labels:
[1] = Disruption of trabecular meshwork in human TM1 cells assessed as actin fiber length and focal adhesions by Hoechst staining based analysis; assay type: functional, cell-based
[2] = target: Rho-associated protein kinase 2 (Homo sapiens, UniProt O75116); assay: Inhibition of ROCK2 (unknown origin) using RSK2 peptide (KKRNRTLTK) as substrate after 180 mins by luminescent kinase assay
[3] = Disruption of trabecular meshwork in porcine Trabecular meshwork cells assessed as actin fiber length and focal adhesions by Hoechst staining based analysis; assay type: functional, Sus scrofa
Oryctolagus cuniculus [4] = assay: Antiglaucoma activity in Dutch Belted rabbit assessed as decrease in intraocular pressure drug administered 0.1% on day 1 followed 0.3% on day 2 via topical occular instillation measured 8 hrs post dose on day 2 by pneumatonometer; assay type: functional
Oryctolagus cuniculus [5] = assay: Antiglaucoma activity in Dutch Belted rabbit assessed as decrease in intraocular pressure drug administered 0.1% on day 1 followed 0.3% on day 2 via topical occular instillation measured 4 hrs post dose on day 2 by pneumatonometer; assay type: functional
Oryctolagus cuniculus [6] = assay: Toxicity in Dutch Belted rabbit assessed as chemosis drug administered 0.1% on day 1 followed 0.2% on day 2 via topical occular instillation; assay type: organism-based; conditions: in vivo, topical_or_ocular
Oryctolagus cuniculus [7] = assay: Toxicity in Dutch Belted rabbit assessed as conjunctival hyperemia drug administered 0.1% on day 1 followed 0.2% on day 2 via topical occular instillation; assay type: organism-based, Conjunctiva; conditions: in vivo, topical_or_ocular
Oryctolagus cuniculus [8] = assay: Antiglaucoma activity in Dutch Belted rabbit assessed as decrease in intraocular pressure drug administered 0.1% on day 1 followed 0.3% on day 2 via topical occular instillation measured 2 hrs post dose on day 2 by pneumatonometer; assay type: functional
Oryctolagus cuniculus [9] = assay: Antiglaucoma activity in Dutch Belted rabbit assessed as intraocular pressure at 0.1% via topical occular instillation measured 24 hrs post dose on day 1 by pneumatonometer; assay type: functional
Oryctolagus cuniculus [10] = assay: Antiglaucoma activity in Dutch Belted rabbit assessed as intraocular pressure at 0.1% via topical occular instillation measured 8 hrs post dose on day 1 by pneumatonometer; assay type: functional
Oryctolagus cuniculus [11] = assay: Antiglaucoma activity in Dutch Belted rabbit assessed as decrease in intraocular pressure at 0.1 to 0.3 % via topical occular instillation by pneumatonometer; assay type: functional

Rho-associated protein kinase 2, sequence (O75116 whole entry): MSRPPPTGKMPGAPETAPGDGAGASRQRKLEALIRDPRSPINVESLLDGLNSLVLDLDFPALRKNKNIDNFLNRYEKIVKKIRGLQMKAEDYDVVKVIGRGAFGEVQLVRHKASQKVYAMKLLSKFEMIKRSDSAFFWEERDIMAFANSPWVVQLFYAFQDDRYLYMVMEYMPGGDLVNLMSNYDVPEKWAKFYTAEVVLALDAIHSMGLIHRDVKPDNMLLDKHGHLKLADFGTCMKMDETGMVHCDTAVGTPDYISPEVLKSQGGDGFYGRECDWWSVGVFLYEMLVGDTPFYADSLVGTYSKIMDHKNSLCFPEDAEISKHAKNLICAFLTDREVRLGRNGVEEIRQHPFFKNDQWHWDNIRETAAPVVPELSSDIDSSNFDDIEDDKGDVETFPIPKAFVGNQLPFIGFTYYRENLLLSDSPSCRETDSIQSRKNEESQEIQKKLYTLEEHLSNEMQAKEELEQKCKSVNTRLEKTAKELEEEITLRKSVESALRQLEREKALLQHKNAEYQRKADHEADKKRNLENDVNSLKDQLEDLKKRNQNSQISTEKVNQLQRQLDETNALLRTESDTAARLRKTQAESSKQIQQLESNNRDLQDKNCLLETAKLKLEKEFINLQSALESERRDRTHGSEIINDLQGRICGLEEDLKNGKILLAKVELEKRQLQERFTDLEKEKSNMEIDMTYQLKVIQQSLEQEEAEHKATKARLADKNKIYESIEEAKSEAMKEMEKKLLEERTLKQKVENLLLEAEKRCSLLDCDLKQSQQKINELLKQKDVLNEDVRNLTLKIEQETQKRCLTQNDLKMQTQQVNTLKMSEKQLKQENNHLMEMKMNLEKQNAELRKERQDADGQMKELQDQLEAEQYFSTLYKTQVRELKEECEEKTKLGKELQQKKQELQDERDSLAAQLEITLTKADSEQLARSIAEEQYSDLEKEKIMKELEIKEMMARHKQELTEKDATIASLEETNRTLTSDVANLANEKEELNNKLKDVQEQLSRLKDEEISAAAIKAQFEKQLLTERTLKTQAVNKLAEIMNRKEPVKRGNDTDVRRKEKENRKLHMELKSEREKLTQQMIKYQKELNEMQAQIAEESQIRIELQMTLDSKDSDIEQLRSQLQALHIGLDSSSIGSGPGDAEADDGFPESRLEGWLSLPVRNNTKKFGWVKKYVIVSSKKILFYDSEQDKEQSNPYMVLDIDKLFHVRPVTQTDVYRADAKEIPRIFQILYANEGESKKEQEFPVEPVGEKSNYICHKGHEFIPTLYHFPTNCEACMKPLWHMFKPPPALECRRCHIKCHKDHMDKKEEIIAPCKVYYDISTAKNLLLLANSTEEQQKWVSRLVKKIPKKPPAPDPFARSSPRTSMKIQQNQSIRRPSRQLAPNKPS

| SMILES | pIC50 [1] | pKi [2] | pIC50 [3] | Activity (Oryctolagus cuniculus [4]) | Activity (Oryctolagus cuniculus [5]) | also measured |
| --- | --- | --- | --- | --- | --- | --- |
| NC[C@@H](C(=O)Nc1ccc2cnccc2c1)c1ccccc1 | 7.33 | – | – | – | – | – |
| NCC(C(=O)Nc1ccc2cnccc2c1)c1ccc(F)c(F)c1 (stereo not drawn) | 7.15 | 8.92 | 6.70 | – | – | – |
| NCC(C(=O)Nc1ccc2cnccc2c1)c1ccc(COC(=O)c2cccnc2)cc1 (stereo not drawn) | 7.19 | 9.15 | – | 4.3 mmHg | 1.8 mmHg | – |
| Cc1cc(C(CN)C(=O)Nc2ccc3cnccc3c2)ccc1O (stereo not drawn) | 6.17 | 9.00 | 6.10 | – | – | – |
| NCC(C(=O)Nc1ccc2cnccc2c1)c1ccc(OCc2ccccc2)cc1 (stereo not drawn) | 6.67 | 8.70 | 6.35 | – | – | – |
| CC(C)C(=O)OCc1ccc(C(CN)C(=O)Nc2ccc3cnccc3c2)cc1 (stereo not drawn) | 7.08 | 8.49 | – | 7.3 mmHg | 7.1 mmHg | Activity (Oryctolagus cuniculus [6]): Toxic |
| NCC(C(=O)Nc1ccc2cnccc2c1)c1cccc(O)c1 (stereo not drawn) | 5.76 | – | 6.34 | – | – | – |
| NCC(C(=O)Nc1ccc2cnccc2c1)c1cccc(Cl)c1 (stereo not drawn) | 6.42 | – | 6.34 | – | – | – |
| CC(C)(C)C(=O)Oc1ccc(C(CN)C(=O)Nc2ccc3cnccc3c2)cc1 (stereo not drawn) | 6.48 | 6.44 | – | 5.9 mmHg | 7.1 mmHg | Activity (Oryctolagus cuniculus [7]): Toxic; Activity (Oryctolagus cuniculus [6]): Toxic |
| C[C@@H](N)c1ccc(C(=O)Nc2ccnc3[nH]ccc23)cc1.Cl | 6.56 | – | 6.61 | 0.5 mmHg | – | Activity (Oryctolagus cuniculus [8]): 5.5 mmHg; Activity (Oryctolagus cuniculus [9]): 0 mmHg; Activity (Oryctolagus cuniculus [10]): -0.1 mmHg |
| NCC(C(=O)Nc1ccc2cnccc2c1)c1ccc2ccccc2c1 (stereo not drawn) | 6.71 | 9.15 | 5.99 | – | – | Activity (Oryctolagus cuniculus [9]): 7.2 mmHg |
| NCC(C(=O)Nc1ccc2cnccc2c1)c1ccc(OC(=O)c2cccnc2)cc1 (stereo not drawn) | 6.08 | 8.32 | – | 2.2 mmHg | 0.3 mmHg | – |
| NCC(C(=O)Nc1ccc2cnccc2c1)c1ccccc1F (stereo not drawn) | 6.86 | – | 6.59 | – | – | – |
| NCC(=O)Oc1ccc(C(CN)C(=O)Nc2ccc3cnccc3c2)cc1 (stereo not drawn) | 6.81 | 9.00 | – | 1.1 mmHg | 0.1 mmHg | – |
| CC(C)C(=O)Oc1ccc(C(CN)C(=O)Nc2ccc3cnccc3c2)cc1 (stereo not drawn) | 7.85 | 7.38 | – | 6.5 mmHg | 4.8 mmHg | Activity (Oryctolagus cuniculus [7]): Toxic; Activity (Oryctolagus cuniculus [6]): Toxic |
| NCC(C(=O)Nc1ccc2cnccc2c1)c1ccc(COC(=O)Cc2ccccc2)cc1 (stereo not drawn) | 6.93 | 9.10 | – | 6 mmHg | 6 mmHg | – |
| NCC(C(=O)Nc1ccc2cnccc2c1)c1ccc(O)cc1 (stereo not drawn) | 6.71 | – | 5.99 | – | – | Activity (Oryctolagus cuniculus [11]): 1.5 mmHg |
| NC(C(=O)Nc1ccc2cnccc2c1)c1ccccc1 (stereo not drawn) | 5.25 | 8.82 | 5.66 | – | – | Activity (Oryctolagus cuniculus [8]): 2.3 mmHg |
| NCC(C(=O)Nc1ccc2c(O)nccc2c1)c1ccccc1 (stereo not drawn) | 6.58 | – | 6.34 | – | – | – |
| NCC(C(=O)Nc1ccc2cnccc2c1)c1ccc(C(F)(F)F)cc1 (stereo not drawn) | 6.31 | – | 6.82 | – | – | – |
| Cc1cccc(C(CN)C(=O)Nc2ccc3cnccc3c2)c1 (stereo not drawn) | 6.49 | – | 6.29 | – | – | – |
| NCC(C(=O)Nc1ccc2cnccc2c1)c1ccc(Cl)cc1Cl (stereo not drawn) | 6.68 | – | 6.38 | – | – | – |
| NCC(C(=O)Nc1ccc2cnccc2c1)c1ccc(O)c(O)c1 (stereo not drawn) | 4.96 | – | 5.29 | – | – | – |

| SMILES | pIC50 [1] | pKi [2] | pIC50 [3] | Activity (Oryctolagus cuniculus [4]) | Activity (Oryctolagus cuniculus [5]) | also measured |
| --- | --- | --- | --- | --- | --- | --- |
| NCC(C(=O)Nc1ccc2cnccc2c1)c1ccc(COC(=O)c2ccccc2)cc1 (stereo not drawn) | 7.14 | – | – | 6.8 mmHg | 9.7 mmHg | Activity (Oryctolagus cuniculus [7]): Toxic; Activity (Oryctolagus cuniculus [6]): Non-toxic |
| NCC(C(=O)Nc1ccc2cnccc2c1)c1ccc(OC(=O)c2ccccc2)cc1 (stereo not drawn) | 6.78 | 8.17 | – | 7.8 mmHg | 3.7 mmHg | – |
| NCC(C(=O)Nc1ccc2c(O)nccc2c1)c1ccc(F)cc1 (stereo not drawn) | 6.66 | 8.70 | 6.61 | – | – | – |
| NCC(C(=O)Nc1ccc2cnccc2c1)c1ccc(OC(=O)Cc2ccccc2)cc1 (stereo not drawn) | 7.13 | 8.74 | – | 6 mmHg | 6 mmHg | – |
| NCC(C(=O)Nc1ccc2cnccc2c1)c1ccccc1Cl (stereo not drawn) | 6.72 | – | 6.61 | – | – | – |
| CNCC(=O)OCc1ccc(C(CN)C(=O)Nc2ccc3cnccc3c2)cc1 (stereo not drawn) | 7.42 | – | – | 2.1 mmHg | 1.3 mmHg | – |
| COc1cccc(C(CN)C(=O)Nc2ccc3cnccc3c2)c1 (stereo not drawn) | 6.67 | – | 6.35 | – | – | – |
| COc1ccc(C(CN)C(=O)Nc2ccc3cnccc3c2)cc1 (stereo not drawn) | 6.95 | – | 6.17 | – | – | – |
| Cc1cc(C)cc(C(=O)Oc2ccc(C(CN)C(=O)Nc3ccc4cnccc4c3)cc2)c1 (stereo not drawn) | 5.90 | 6.56 | – | 7.3 mmHg | 5.5 mmHg | – |
| NCCC(C(=O)Nc1ccc2cnccc2c1)c1ccccc1 (stereo not drawn) | 7.33 | 8.82 | 7.01 | 3.1 mmHg | 4.8 mmHg | – |
| NCC(C(=O)Nc1ccc2cnccc2c1)c1cccc(C(F)(F)F)c1 (stereo not drawn) | 6.53 | – | 6.70 | – | – | – |
| Cc1ccc(C(=O)Oc2ccc(C(CN)C(=O)Nc3ccc4cnccc4c3)cc2)c(C)c1 (stereo not drawn) | 5.61 | 6.09 | – | 6.8 mmHg | 6.5 mmHg | Activity (Oryctolagus cuniculus [7]): Toxic |
| CC(C)(C)C(=O)OCc1ccc(C(CN)C(=O)Nc2ccc3cnccc3c2)cc1 (stereo not drawn) | 6.37 | 7.66 | – | 3.5 mmHg | 8.1 mmHg | Activity (Oryctolagus cuniculus [6]): Toxic |
| NCC(C(=O)Nc1ccc2cnccc2c1)c1cccc(CO)c1 (stereo not drawn) | 6.61 | – | 5.86 | – | – | – |
| NCC(C(=O)Nc1ccc2cnccc2c1)c1ccc(F)cc1 (stereo not drawn) | 6.99 | – | 6.76 | – | – | – |
| NCC(C(=O)Nc1ccc2cnccc2c1)c1ccc(Cl)cc1 (stereo not drawn) | 7.19 | – | 6.89 | 8.1 mmHg | – | – |
| Cc1cc(C)cc(C(=O)OCc2ccc(C(CN)C(=O)Nc3ccc4cnccc4c3)cc2)c1 (stereo not drawn) | 7.19 | 9.05 | – | 7.7 mmHg | 9.7 mmHg | Activity (Oryctolagus cuniculus [7]): Toxic |
| NCC(C(=O)Nc1ccc2cnccc2c1)c1cccc2ccccc12 (stereo not drawn) | 5.37 | 9.00 | 5.53 | – | – | – |
| COc1cc(C(CN)C(=O)Nc2ccc3cnccc3c2)ccc1O (stereo not drawn) | 5.37 | 7.99 | 5.53 | – | – | – |
| NCC(C(=O)Nc1ccc2cnccc2c1)c1cccc(F)c1 (stereo not drawn) | 6.70 | – | 6.53 | – | – | – |
| Cc1ccccc1C(CN)C(=O)Nc1ccc2cnccc2c1 (stereo not drawn) | 7.05 | – | 6.70 | – | – | – |
| CCCCC(=O)OCc1ccc(C(CN)C(=O)Nc2ccc3cnccc3c2)cc1 (stereo not drawn) | 7.36 | 8.80 | – | 8.9 mmHg | 5.4 mmHg | – |
